Target: Endothelial lipase (EL) (Homo sapiens (Human), UniProt Q9Y5X9)
Test: Endothelial lipase (EL) enzymatic assay with fluorescent substrate A10070 in DMPG vesicles
Assay type: biochemical
Details: not given
Summary of the method: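 Vesicles prepared: A10070 dried with DMPG, resuspended in HEPES pH 8.0/NaCl/EDTA, sonicated on ice. Enzyme incubated with compound 30 min at 37° C. Reaction started with 1:10 diluted vesicles. Fluorescence (490/530 nm) followed 60 min; slope from 300–900 secs gives rate.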

Endothelial lipase (EL), sequence (Q9Y5X9 21-500): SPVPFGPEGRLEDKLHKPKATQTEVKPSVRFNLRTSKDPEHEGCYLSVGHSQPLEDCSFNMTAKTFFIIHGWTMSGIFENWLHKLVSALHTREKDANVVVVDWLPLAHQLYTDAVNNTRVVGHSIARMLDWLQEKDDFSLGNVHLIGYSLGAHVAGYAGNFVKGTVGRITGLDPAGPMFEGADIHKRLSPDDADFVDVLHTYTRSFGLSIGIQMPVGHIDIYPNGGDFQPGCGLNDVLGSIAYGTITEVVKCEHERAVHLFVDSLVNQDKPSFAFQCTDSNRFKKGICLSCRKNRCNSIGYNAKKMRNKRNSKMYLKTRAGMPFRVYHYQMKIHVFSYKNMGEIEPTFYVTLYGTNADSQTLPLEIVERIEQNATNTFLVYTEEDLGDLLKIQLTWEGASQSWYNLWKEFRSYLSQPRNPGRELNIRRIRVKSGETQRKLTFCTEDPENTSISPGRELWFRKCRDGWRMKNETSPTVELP

Row | IC50 | SMILES
1 | 0.004 µM | CS(=O)(=O)C(C(=O)NCC(=O)NC1CC1)c1nc2cc(F)c(-c3ccc(C(N)=O)cc3)cc2s1 (stereo not shown) [Example 331, 4-[2-({[(cyclopropyl-carbamoyl)methyl]carbamoyl} (methanesulfonyl)methyl)-5-fluoro-1,3-benzothiazol-6-yl]benzamide]
2 | 0.062 µM | CC(C)c1cc(CNC(=O)c2ccc3sc(C(C(=O)NCC(=O)NC4CC4)S(=O)(=O)Cc4ccc(F)cc4)nc3c2)on1 (stereo not shown) [Example 426, 2-({[(cyclopropyl-carbamoyl)methyl]carbamoyl}(4-fluorophenyl)methanesulfonyl-methyl)-N-{[3-(propan-2-yl)-1,2-oxazol-5-yl]methyl}-1,3-benzothiazole-5-carboxamide]
3 | 0.002 µM | CC(C)OC(=O)Nc1ccc(-c2cc3sc(C(C(=O)NCC(=O)NC4CC4)S(=O)(=O)C4CC4)nc3cc2F)cc1 (stereo not shown) [Example 542, propan-2-yl N-(4-{2-[(cyclopropane-sulfonyl) ({[(cyclopropyl-carbamoyl)methyl]carbamoyl})methyl]-5-fluoro-1,3-benzothiazol-6-yl}phenyl) carbamate]
4 | 0.171 µM | COCCS(=O)(=O)C(C(=O)NCC(=O)NC1CC1)c1nc2cc(-c3cccc(F)n3)ccc2s1 (stereo not shown) [Example 89, N-[(cyclopropyl-carbamoyl)methyl]-2-[5-(6-fluoropyridin-2-yl)-1,3-benzothiazol-2-yl]-2-(2-methoxyethane-sulfonyl) acetamide]
5 | 0.031 µM | COCCS(=O)(=O)C(C(=O)NCC(=O)NC1CC1)c1nc2cc(-c3cncc(F)c3)ccc2s1 (stereo not shown) [Example 75, N-[(cyclopropyl-carbamoyl)methyl]-2-[5-(5-fluoropyridin-3-yl)-1,3-benzothiazol-2-yl]-2-(2-methoxyethane-sulfonyl) acetamide]
6 | 0.038 µM | COCCS(=O)(=O)C(C(=O)NCC(=O)NC1CC1)c1nc2cc(-c3cccc(C(=O)N(C)C)c3)ccc2s1 (stereo not shown) [Example 398, 3-[2-({[(cyclopropyl-carbamoyl)methyl]carbamoyl}(2-methoxyethane-sulfonyl)methyl)-1,3-benzothiazol-5-yl]-N,N-dimethyl-benzamide]
7 | 0.001 µM | O=C(CNC(=O)C(c1nc2cc(F)c(-c3ccc(NC(=O)NCc4ccccc4)cc3)cc2s1)S(=O)(=O)CCC(F)(F)F)NC1CC1 (stereo not shown) [Example 511, 2-(6-{4-[(benzyl-carbamoyl)amino]phenyl}-5-fluoro-1,3-benzothiazol-2-yl)-N-[(cyclopropyl-carbamoyl)methyl]-2-(3,3,3-trifluoropropane-sulfonyl)acetamide]
8 | 0.014 µM | COC(=O)N(C)c1ccc(-c2ccc3nc(C(C(=O)NCC(=O)NC4CC4)S(C)(=O)=O)sc3c2)cc1 (stereo not shown) [Example 23, methyl N-{4-[2-({[(cyclopropyl-carbamoyl)methyl]carbamoyl} (methanesulfonyl)methyl)-1,3-benzothiazol-6-yl]phenyl}-N-methylcarbamate]
9 | 0.001 µM | O=C(CNC(=O)C(c1nc2cc(F)c(-c3ccc(NC(=O)OCc4ccccc4)cc3)cc2s1)S(=O)(=O)CCN1CCOCC1)NC1CC1 (stereo not shown) [Example 423, benzyl N-{4-[2-({[(cyclopropyl-carbamoyl)methyl]carbamoyl}[2-(morpholin-4-yl)ethanesulfonyl]methyl)-5-fluoro-1,3-benzothiazol-6-yl]phenyl} carbamate]
10 | 0.012 µM | Cc1cc2nc(C(C(=O)NCC(=O)NC3CC3)S(=O)(=O)C(C)C)sc2cc1-c1ccc(NC(=O)OCc2ccccc2)cc1 (stereo not shown) [Example 285, benzyl N-{4-[2-({[(cyclopropyl-carbamoyl)methyl]carbamoyl} (propane-2-sulfonyl)methyl)-5-methyl-1,3-benzothiazol-6-yl]phenyl}carbamate]
11 | 0.057 µM | Cn1ccc(-c2ccc3nc(C(C(=O)NCC(=O)NC4CC4)S(=O)(=O)N4CCOCC4)sc3c2)cc1=O (stereo not shown) [Example 485, N-[(cyclopropyl-carbamoyl)methyl]-2-[6-(1-methyl-2-oxo-1,2-dihydropyridin-4-yl)-1,3-benzothiazol-2-yl]-2-(morpholine-4-sulfonyl)acetamide]
12 | 0.014 µM | COCCS(=O)(=O)C(C(=O)NCC(=O)NC1(C)CC1)c1nc2cc(-c3ccc(F)nc3)ccc2s1 (stereo not shown) [Example 392, 2-[5-(6-fluoropyridin-3-yl)-1,3-benzothiazol-2-yl]-2-(2-methoxyethane-sulfonyl)-N-{[(1-methylcyclopropyl)carbamoyl]methyl} acetamide]
13 | 0.009 µM | CN1C(=O)Cc2cc(-c3cc4sc(C(C(=O)NCC(=O)NC5CC5)S(C)(=O)=O)nc4cc3F)ccc21 (stereo not shown) [Example 374, N-[(cyclopropyl-carbamoyl)methyl]-2-[5-fluoro-6-(1-methyl-2-oxo-2,3-dihydro-1H-indol-5-yl)-1,3-benzothiazol-2-yl]-2-methanesulfonyl-acetamide]
14 | 0.012 µM | O=C(CNC(=O)C(c1nc2cc(-c3cncnc3)ccc2s1)S(=O)(=O)c1ccccc1)NC1CC1 (stereo not shown) [Example 435, 2-(benzenesulfonyl)-N-[(cyclopropyl-carbamoyl)methyl]-2-[5-(pyrimidin-5-yl)-1,3-benzothiazol-2-yl]acetamide]
15 | 0.01 µM | CN(C)S(=O)(=O)C(C(=O)NCC(=O)NC1CC1)c1nc2c(F)cc(-c3ccc(-c4nnn[nH]4)cc3)cc2s1 (stereo not shown) [Example 504, N-[(cyclopropyl-carbamoyl)methyl]-2-(dimethyl-sulfamoyl)-2-{4-fluoro-6-[4-(1H-1,2,3,4-tetrazol-5-yl)phenyl]-1,3-benzothiazol-2-yl}acetamide]
16 | 0.004 µM | COC(=O)Nc1ccc(-c2cc3sc(C(C(=O)NCC(=O)NC4CC4)S(C)(=O)=O)nc3cc2F)cc1 (stereo not shown) [Example 120, methyl N-{4-[2-({[(cyclopropyl-carbamoyl)methyl]carbamoyl} (methanesulfonyl)methyl)-5-fluoro-1,3-benzothiazol-6-yl]phenyl} carbamate]
17 | 0.039 µM | COCCS(=O)(=O)C(C(=O)NCC(=O)NC1CC1)c1nc2cc(-c3cncnc3)c(C)cc2s1 (stereo not shown) [Example 183, N-[(cyclopropyl-carbamoyl)methyl]-2-(2-methoxyethane-sulfonyl)-2-[6-methyl-5-(pyrimidin-5-yl)-1,3-benzothiazol-2-yl]acetamide]
18 | 0.006 µM | COC(=O)N(C)c1ccc(-c2ccc3nc(C(C(=O)NCC(=O)NC4CC4)S(=O)(=O)CCC(F)(F)F)sc3c2)cc1 (stereo not shown) [Example 24, methyl N-{4-[2-({[(cyclopropyl-carbamoyl)methyl]carbamoyl} (3,3,3-trifluoropropane-sulfonyl)methyl)-1,3-benzothiazol-6-yl]phenyl}-N-methylcarbamate]
19 | 0.005 µM | COC(=O)Nc1cccc(-c2cc3nc(C(C(=O)NCC(=O)NC4CC4)S(C)(=O)=O)sc3cc2F)c1 (stereo not shown) [Example 123, methyl N-{3-[2-({[(cyclopropyl-carbamoyl)methyl]carbamoyl} (methanesulfonyl)methyl)-6-fluoro-1,3-benzothiazol-5-yl]phenyl} carbamate]
20 | 0.002 µM | COCCS(=O)(=O)C(C(=O)NCC(=O)NC1CC1)c1nc2cc(F)c(-c3ccc(-n4cccn4)cc3)cc2s1 (stereo not shown) [Example 139, N-[(cyclopropyl-carbamoyl)methyl]-2-{5-fluoro-6-[4-(1H-pyrazol-1-yl)phenyl]-1,3-benzothiazol-2-yl}-2-(2-methoxyethane-sulfonyl) acetamide]
21 | 0.005 µM | CS(=O)(=O)C(C(=O)NCC(=O)NC1CC1)c1nc2cc(F)c(-c3cnc(-c4ccccc4)nc3)cc2s1 (stereo not shown) [Example 202, N-[(cyclopropyl-carbamoyl)methyl]-2-[5-fluoro-6-(2-phenylpyrimidin-5-yl)-1,3-benzothiazol-2-yl]-2-methanesulfonyl-acetamide]
22 | 0.025 µM | COCCS(=O)(=O)C(C(=O)NCC(=O)NC1CC1)c1nc2cc(-c3ccc(Cl)nc3)ccc2s1 (stereo not shown) [Example 72, 2-[5-(6-chloropyridin-3-yl)-1,3-benzothiazol-2-yl]-N-[(cyclopropyl-carbamoyl)methyl]-2-(2-methoxyethane-sulfonyl) acetamide]
23 | 0.045 µM | CC(C)OCCNC(=O)CNC(=O)C(c1nc2ccc(-c3ccn(C)c(=O)c3)cc2s1)S(=O)(=O)c1ccc(F)cc1 (stereo not shown) [Example 464, 2-(4-fluorobenzene-sulfonyl)-2-[6-(1-methyl-2-oxo-1,2-dihydropyridin-4-yl)-1,3-benzothiazol-2-yl]-N-({[2-(propan-2-yloxy)ethyl]carbamoyl}methyl)acetamide]
24 | 0.293 µM | COCCS(=O)(=O)C(C(=O)NCC(=O)NC1CC1)c1nc2cc(-c3cncnc3C(C)C)ccc2s1 (stereo not shown) [Example 86, N-[(cyclopropyl-carbamoyl)methyl]-2-(2-methoxyethane-sulfonyl)-2-{5-[4-(propan-2-yl)pyrimidin-5-yl]-1,3-benzothiazol-2-yl}acetamide]
25 | 0.022 µM | CC(C)S(=O)(=O)C(C(=O)NCC(=O)NC1CC1)c1nc2c(F)cc(-c3cnc(-c4ccccc4)nc3)cc2s1 (stereo not shown) [Example 282, N-[(cyclopropyl-carbamoyl)methyl]-2-[4-fluoro-6-(2-phenylpyrimidin-5-yl)-1,3-benzothiazol-2-yl]-2-(propane-2-sulfonyl)acetamide]
26 | 0.04 µM | CS(=O)(=O)C(C(=O)NCC(=O)NC1CC1)c1nc2cc(-c3ccccc3)ccc2s1 (stereo not shown) [Example 610, N-[(cyclopropyl-carbamoyl)methyl]-2-methanesulfonyl-2-(5-phenyl-1,3-benzothiazol-2-yl)acetamide]
27 | 0.005 µM | COCCS(=O)(=O)C(C(=O)NCC(=O)NC1CC1)c1nc2cc(-c3ccnc(C(F)(F)F)c3)ccc2s1 (stereo not shown) [Example 63, N-[(cyclopropyl-carbamoyl)methyl]-2-(2-methoxyethane-sulfonyl)-2-{5-[2-(trifluoromethyl)pyridin-4-yl]-1,3-benzothiazol-2-yl}acetamide]

Same assay, conditions: EL from conditioned media of HT-1080 cells; 30 min preincubation at 37° C.

Row | IC50 | SMILES
28 | 0.0013 µM | CS(=O)(=O)C(C(=O)NCC(=O)NC1CC1)c1nc2cc(F)c(-c3ccc(NC(=O)OCc4ccccn4)cc3)cc2s1 (stereo not shown) [Example 510, Pyridin-2-ylmethyl (4-(2-(2-((2-(cyclopropylamino)-2-oxoethyl)amino)-1-(methylsulfonyl)-2-oxoethyl)-5-fluorobenzo[d]thiazol-6-yl)phenyl)carbamate]
